Measurements reported in patent publication US20240066028A1, “COMPOSITIONS FOR IMPROVED DELIVERY OF CGRP INHIBITORS” (Pfizer Ireland Pharmaceuticals, priority 2020, published 2024).

How the values were obtained:
[1] = FAO/WHO report; cited from earlier work
[2] = PK exposure from 10 mg intranasal (IN) zavegepant; assay type: in vivo, human; conditions: 10 mg IN
[3] = Study BHV3500-107 Cohort 1: zavegepant 50 mg SoftGel QD PK (fasted Days 1-10, fed Days 11-14); assay type: in vivo, humans; conditions: for Concentration: Cohort 1, 50 mg QD SoftGel, pre-dose
[4] = Study BHV3500-103 Treatment B: PK after 50 mg x 1 SoftGel orally; assay type: in vivo, humans; conditions: Study 103, 50 mg SoftGel x 1 oral; for AUC(0-t) / AUC(0-inf) / Cmax / Tmax: human, in vivo, po, 50 mg
Procedure: Single-dose: Study BHV3500-103, PK data after 50 mg×1 (2×25 mg) SoftGel administered orally (Treatment B)

human CGRP = human CGRP (Homo sapiens, UniProt O60894+Q16602); conditions: cited from earlier work
[5] = female, beagle, dog, in vivo, 50 mg
[6] = Phase 2/3 dose-ranging clinical trial of intranasal BHV-3500; assay type: in vivo, human; conditions: intranasal unit doses 5, 10 and 20 mg; treatment of migraine
in vivo = conditions: female, beagle, dog, 50 mg; for AUC(0-t): AUC0-4 hr
[7] = Cohort 1, Day 10, 50 mg QD SoftGel oral, fasted, multiple dose, Max
[8] = Cohort 1, Day 10, 50 mg QD SoftGel oral, fasted, multiple dose, Min
[9] = Day 14 (with food, moderate fat meal) vs. Day 10 (fasted), 50 mg QD SoftGel
[10] = Study 107, Cohort 1, Day 1, 50 mg SoftGel single dose, fasted

Sequence of human CGRP (Q16602 23-461): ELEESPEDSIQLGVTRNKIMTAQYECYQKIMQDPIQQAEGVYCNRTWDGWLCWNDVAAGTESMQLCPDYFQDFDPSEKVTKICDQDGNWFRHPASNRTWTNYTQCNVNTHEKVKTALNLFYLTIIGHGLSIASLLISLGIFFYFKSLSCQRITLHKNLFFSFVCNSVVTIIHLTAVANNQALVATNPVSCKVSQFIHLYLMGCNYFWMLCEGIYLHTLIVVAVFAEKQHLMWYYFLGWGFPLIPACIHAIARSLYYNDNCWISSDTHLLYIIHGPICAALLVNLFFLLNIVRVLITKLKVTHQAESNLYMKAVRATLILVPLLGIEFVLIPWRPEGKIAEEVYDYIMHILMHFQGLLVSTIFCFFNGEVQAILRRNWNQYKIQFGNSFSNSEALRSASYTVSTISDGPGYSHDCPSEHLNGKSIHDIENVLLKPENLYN
Sequence of human CGRP (O60894 27-148): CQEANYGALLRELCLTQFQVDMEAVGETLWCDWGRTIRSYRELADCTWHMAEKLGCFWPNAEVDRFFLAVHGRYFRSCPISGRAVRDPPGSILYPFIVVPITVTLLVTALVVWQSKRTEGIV

sucrose dodecanoate
NOAEL [1]: 20-30 grams/kilogram/day

Cc1cc(C[C@@H](NC(=O)N2CCC(c3cc4ccccc4[nH]c3=O)CC2)C(=O)N2CCN(C3CCN(C)CC3)CC2)cc2cn[nH]c12 [BHV-3500, (R)-N-(3-(7-methyl-1H-indazol-5-yl)-1-(4-(1-methylpiperidin-4-yl)piperazin-1-yl)-1-oxopropan-2-yl)-4-(2-oxo-1,2-dihydroquinolin-3-yl)piperidine-1-carboxamide]
AUC [2]: 33.0 ng·h/mL
Pre-dose (C0) concentrations ([3]; 50 mg QD SoftGel, Days 1-14): largely below the LLOQ
Concentration ([3]; Day 6, fasting, Mean): 0.0936 ng/mL
Concentration ([3]; Day 10, fasting, Max): 8.5 ng/mL
Concentration ([3]; Day 10, fasting, Mean): 0.0582 ng/mL
Concentration ([3]; Day 12, moderate fat meal, Mean): 0.0764 ng/mL
Concentration ([3]; Day 12, moderate fat meal, Min): 0 ng/mL
Concentration ([3]; Day 14, moderate fat meal, Mean): 0 ng/mL
Concentration ([3]; Day 14, moderate fat meal, Min): 0 ng/mL
Cmax ([3]; Cohort 1, Day 1, 50 mg SoftGel oral, fasted, single dose, Max): 13.8 ng/mL
Residual area ([3]; Cohort 1, Day 1, 50 mg SoftGel oral, fasted, single dose, Median): 8.9%
Cmax ([3]; Cohort 1, Day 1, 50 mg SoftGel oral, fasted, single dose, Min): 1.42 ng/mL
Cmax [3, 7]: 46.1 ng/mL
Tmax [3, 7]: 5 h
Tmax ([3]; Cohort 1, Day 10, 50 mg QD SoftGel oral, fasted, multiple dose, Mean, listed as Zavegepant): 2.59 h
Cmax [3, 8]: 2.27 ng/mL
Tmax [3, 8]: 1.5 h
Cmax ([3]; Cohort 1, Day 14, 50 mg QD SoftGel oral, fed (moderate fat meal), multiple dose, Max): 3.02 ng/mL
Tmax ([3]; Cohort 1, Day 14, 50 mg QD SoftGel oral, fed (moderate fat meal), multiple dose, Min): 2.5 h
decrease in extent of absorption (AUC) with food [3, 9]: ~65%
decrease in rate of absorption (Cmax) with food [3, 9]: ~72%
Tmax ([3]; Day 14, fed (moderate fat meal), multiple dose, 50 mg QD SoftGel, statistic not stated, listed as zavegepant): 3.6 h
AUC0-24, Max [3, 10]: 46.3 ng·h/mL
AUC0-24, Mean [3, 10]: 19.1 ng·h/mL
AUC0-24, Min [3, 10]: 4.66 ng·h/mL
AUCINF_obs, Max [3, 10]: 47.8 ng·h/mL
AUCINF_obs, Mean [3, 10]: 22.6 ng·h/mL
AUCINF_obs, Min [3, 10]: 9.54 ng·h/mL
Cmax, Max [3, 10]: 13.8 ng/mL
Cmax, Min [3, 10]: 1.42 ng/mL
HL_Lambda_z, Geometric Mean [3, 10]: 2.48 h
HL_Lambda_z, Max [3, 10]: 5.07 h
HL_Lambda_z, Mean [3, 10]: 2.66 h
HL_Lambda_z, Median [3, 10]: 2.19 h
HL_Lambda_z, Min [3, 10]: 1.62 h
Tmax, Max [3, 10]: 5.00 h
steady state achieved by ([3]; concentrations at 8 hours post-dose, multiple dosing 50 mg QD, fasted state): ≤ 3 days
Cmax ([3]; human, in vivo, oral, 50 mg, Day 10, steady state, fasting, 50 mg QD SoftGel, statistic not stated, range 2.3 to 46.1, read-out: Cmax): 5.7 ng/mL
AUC(0-t) ([3]; human, in vivo, oral, 50 mg, Day 10, steady state, fasting, 50 mg QD SoftGel, statistic not stated, range 6.7 to 75.4, read-out: AUC0-24): 20.4 ng·h/mL
Tmax ([3]; human, in vivo, oral, 50 mg, Day 10, steady state, fasting, 50 mg QD SoftGel, statistic not stated, read-out: Tmax): 2 h
Tmax ([3]; human, in vivo, oral, 50 mg, Day 14, fed (moderate fat meal), multiple dose, 50 mg QD SoftGel, statistic not stated, read-out: Tmax): 4 h
Cmax ([3]; human, in vivo, oral, 50 mg, Day 14, fed (moderate fat meal), 50 mg QD SoftGel, statistic not stated, range 1.0 to 3.0, read-out: Cmax): 1.6 ng/mL
AUC(0-t) ([3]; human, in vivo, oral, 50 mg, Day 14, fed (moderate fat meal), 50 mg QD SoftGel, statistic not stated, range 3.7 to 16.6, read-out: AUC0-24): 7.3 ng·h/mL
AUC(0-t) ([3]; human, in vivo, oral, 50 mg, Study 107, Cohort 1, Day 1, 50 mg SoftGel single dose, fasted, read-out: AUC0-24, Geometric Mean): 15.8 ng·h/mL
AUC(0-t) ([3]; human, in vivo, oral, 50 mg, Study 107, Cohort 1, Day 1, 50 mg SoftGel single dose, fasted, read-out: AUC0-24, Median): 16.7 ng·h/mL
AUC(0-inf) ([3]; human, in vivo, oral, 50 mg, Study 107, Cohort 1, Day 1, 50 mg SoftGel single dose, fasted, read-out: AUCINF_obs, Geometric Mean): 20 ng·h/mL
AUC(0-inf) ([3]; human, in vivo, oral, 50 mg, Study 107, Cohort 1, Day 1, 50 mg SoftGel single dose, fasted, read-out: AUCINF_obs, Median): 20.6 ng·h/mL
Cmax ([3]; human, in vivo, oral, 50 mg, Study 107, Cohort 1, Day 1, 50 mg SoftGel single dose, fasted, read-out: Cmax, Geometric Mean): 5.3 ng/mL
Cmax ([3]; human, in vivo, oral, 50 mg, Study 107, Cohort 1, Day 1, 50 mg SoftGel single dose, fasted, read-out: Cmax, Mean): 6.32 ng/mL
Cmax ([3]; human, in vivo, oral, 50 mg, Study 107, Cohort 1, Day 1, 50 mg SoftGel single dose, fasted, read-out: Cmax, Median): 5.73 ng/mL
Tmax ([3]; human, in vivo, oral, 50 mg, Study 107, Cohort 1, Day 1, 50 mg SoftGel single dose, fasted, read-out: Tmax, Geometric Mean): 2.18 h
Tmax ([3]; human, in vivo, oral, 50 mg, Study 107, Cohort 1, Day 1, 50 mg SoftGel single dose, fasted, read-out: Tmax, Mean): 2.42 h
Tmax ([3]; human, in vivo, oral, 50 mg, Study 107, Cohort 1, Day 1, 50 mg SoftGel single dose, fasted, read-out: Tmax, Median): 2.25 h
Tmax ([3]; human, in vivo, po, 50 mg, Cohort 1, Day 1, 50 mg SoftGel oral, fasted, single dose, Geometric Mean, read-out: Tmax): 2.18 h
Cmax ([3]; human, in vivo, po, 50 mg, Cohort 1, Day 1, 50 mg SoftGel oral, fasted, single dose, Mean, read-out: Cmax): 6.32 ng/mL
Tmax ([3]; human, in vivo, po, 50 mg, Cohort 1, Day 1, 50 mg SoftGel oral, fasted, single dose, Mean, read-out: Tmax): 2.42 h
Cmax ([3]; human, in vivo, po, 50 mg, Cohort 1, Day 1, 50 mg SoftGel oral, fasted, single dose, Median, read-out: Cmax): 6.78 ng/mL
Tmax ([3]; human, in vivo, po, 50 mg, Cohort 1, Day 1, 50 mg SoftGel oral, fasted, single dose, Median, read-out: Tmax): 2.25 h
Tmax ([3]; human, in vivo, po, 50 mg, Cohort 1, Day 10, 50 mg QD SoftGel oral, fasted, multiple dose, Geometric Mean, read-out: Tmax): 2.35 h
Cmax ([3]; human, in vivo, po, 50 mg, Cohort 1, Day 10, 50 mg QD SoftGel oral, fasted, multiple dose, Mean, read-out: Cmax): 9.71 ng/mL
Tmax ([3]; human, in vivo, po, 50 mg, Cohort 1, Day 10, 50 mg QD SoftGel oral, fasted, multiple dose, Mean, read-out: Tmax): 2.69 h
Cmax ([3]; human, in vivo, po, 50 mg, Cohort 1, Day 10, 50 mg QD SoftGel oral, fasted, multiple dose, Median, read-out: Cmax): 4.7 ng/mL
Tmax ([3]; human, in vivo, po, 50 mg, Cohort 1, Day 10, 50 mg QD SoftGel oral, fasted, multiple dose, Median, read-out: Tmax): 2 h
Cmax ([3]; human, in vivo, po, 50 mg, Cohort 1, Day 14, 50 mg QD SoftGel oral, fed (moderate fat meal), multiple dose, Geometric Mean, read-out: Cmax): 1.62 ng/mL
Tmax ([3]; human, in vivo, po, 50 mg, Cohort 1, Day 14, 50 mg QD SoftGel oral, fed (moderate fat meal), multiple dose, Geometric Mean, read-out: Tmax): 3.63 h
Tmax ([3]; human, in vivo, po, 50 mg, Cohort 1, Day 14, 50 mg QD SoftGel oral, fed (moderate fat meal), multiple dose, Mean, read-out: Tmax): 3.78 h
Cmax ([3]; human, in vivo, po, 50 mg, Cohort 1, Day 14, 50 mg QD SoftGel oral, fed (moderate fat meal), multiple dose, Median, read-out: Cmax): 1.48 ng/mL
AUC0-24, Max [4]: 59.0 ng·h/mL
AUCINF_obs, Max [4]: 60.1 ng·h/mL
AUCINF_obs, Min [4]: 9.21 ng·h/mL
Cmax, Max [4]: 26.8 ng/mL
Cmax, Min [4]: 1.86 ng/mL
HL_Lambda_z, Geometric Mean [4]: 2.17 h
HL_Lambda_z, Max [4]: 4.74 h
HL_Lambda_z, Mean [4]: 2.28 h
HL_Lambda_z, Median [4]: 1.98 h
HL_Lambda_z, Min [4]: 1.48 h
Tmax, Min [4]: 0.500 h
AUC(0-t) ([4]; read-out: AUC0-24, Geometric Mean): 21 ng·h/mL
AUC(0-t) ([4]; read-out: AUC0-24, Mean): 25.3 ng·h/mL
AUC(0-t) ([4]; read-out: AUC0-24, Median): 18.8 ng·h/mL
AUC(0-inf) ([4]; read-out: AUCINF_obs, Geometric Mean): 21.5 ng·h/mL
AUC(0-inf) ([4]; read-out: AUCINF_obs, Mean): 25.8 ng·h/mL
AUC(0-inf) ([4]; read-out: AUCINF_obs, Median): 19.1 ng·h/mL
Cmax ([4]; read-out: Cmax, Geometric Mean): 7.6 ng/mL
Cmax ([4]; read-out: Cmax, Mean): 10.8 ng/mL
Cmax ([4]; read-out: Cmax, Median): 7.06 ng/mL
Tmax ([4]; read-out: Tmax, Geometric Mean): 1.65 h
Tmax ([4]; read-out: Tmax, Mean): 1.98 h
Tmax ([4]; read-out: Tmax, Median): 1.75 h
Ki (human CGRP): 0.023 nM
AUC0-4 hr, Median/Average [5]: 44.4 ng·h/mL
Cmax, Median/Average [5]: 31.7 ng/mL
Tmax, Median/Average [5]: 0.5 h
t1/2, Median/Average [5]: 0.71 h
lowest fully effective dose [6]: 10 mg
AUC(0-t) (in vivo): 40.3 ng·h/mL
AUC(0-t) (in vivo; Median/Average): 55.1 ng·h/mL
Cmax (in vivo; Cmax, Median/Average): 37 ng/mL
Tmax (in vivo; Tmax, Median/Average): 1 h
half-life (in vivo; t1/2): 0.54 h
half-life (in vivo; t1/2, Median/Average): 0.77 h
